Data published in ChEMBL document CHEMBL2150950, “Effect of 4-aryl-2-methyl-5-nitro-1,4-dihydropyridine-3-carboxylates on the guinea pig papillary muscle and isolated human vena saphena magna that is used for coronary artery bypass grafting” (2011).

Tests used:
[1] = Ionotropic effect in guinea pig ventricle papillary muscles assessed as lengthening of 50% repolarized cardiac action potential duration time at 10^-4 M by microelectrode technique relative to untreated control (reference value: 132 to 176 APD50 ms); type: functional, Cavia porcellus, Papillary muscle
[2] = Ionotropic effect in guinea pig ventricle papillary muscles assessed as lengthening of 90% repolarized cardiac action potential duration time at 10^-4 M by microelectrode technique relative to untreated control (reference value: 209 to 222 APD50 ms) in presence of 3.1 x 10^-6 M inward rectifier current blocker BaCl2; type: functional, Cavia porcellus
[3] = Ionotropic effect in guinea pig ventricle papillary muscles assessed as lengthening of 50% repolarized cardiac action potential duration time at 10^-4 M by microelectrode technique relative to untreated control (reference value: 180 to 192 APD50 ms) in presence of 3.1 x 10^-6 M inward rectifier current blocker BaCl2; type: functional, Cavia porcellus
[4] = Ionotropic effect in guinea pig ventricle papillary muscles assessed as lengthening of 10% repolarized cardiac action potential duration time at 10^-4 M by microelectrode technique relative to untreated control (reference value: 52 to 54 APD10 ms) in presence of 1 x 10^-6 M IKr channel blocker Sotalol; type: functional, Cavia porcellus
[5] = Ionotropic effect in guinea pig ventricle papillary muscles assessed as lengthening of 10% repolarized cardiac action potential duration time at 10^-6 M by microelectrode technique relative to untreated control (reference value: 37 to 47 APD10 ms); type: functional, Cavia porcellus, Papillary muscle
[6] = Ionotropic effect in guinea pig right ventricle papillary muscles assessed as contraction force at 10^-6 M by force transduction assay relative to untreated control (reference value: 100%) in presence of 1 x 10^-6 M IKr channel blocker Sotalol; type: functional, Cavia porcellus, Heart right ventricle
[7] = Ionotropic effect in guinea pig right ventricle papillary muscles assessed as contraction force at 10^-7 M by force transduction assay relative to untreated control (reference value: 100%); type: functional, Cavia porcellus, Papillary muscle
[8] = Ionotropic effect in guinea pig ventricle papillary muscles assessed as lengthening of […] cardiac action potential duration time at 10^-5 M by microelectrode technique relative to untreated control (reference value: 37 to 47 […] ms); type: functional, Cavia porcellus, Papillary muscle
[9] = Ionotropic effect in guinea pig ventricle papillary muscles assessed as lengthening of 50% repolarized cardiac action potential duration time at 10^-5 M by microelectrode technique relative to untreated control (reference value: 180 to 192 APD50 ms) in presence of 2 x 10^-5 M KATP channel blocker glibenclamide; type: functional, Cavia porcellus
[10] = Ionotropic effect in guinea pig ventricle papillary muscles assessed as lengthening of 10% repolarized cardiac action potential duration time at 10^-7 M by microelectrode technique relative to untreated control (reference value: 37 to 47 APD10 ms); type: functional, Cavia porcellus, Papillary muscle
[11] = Ionotropic effect in guinea pig right ventricle papillary muscles assessed as contraction force at 10^-5 M by force transduction assay relative to untreated control (reference value: 100%) in presence of 1 x 10^-6 M IKr channel blocker Sotalol; type: functional, Cavia porcellus, Heart right ventricle
[12] = Ionotropic effect in guinea pig ventricle papillary muscles assessed as lengthening of 25% repolarized cardiac action potential duration time at 10^-5 M by microelectrode technique relative to untreated control (reference value: 120 to 131 APD25 ms) in presence of 1 x 10^-6 M IKr channel blocker Sotalol; type: functional, Cavia porcellus
[13] = Ionotropic effect in guinea pig ventricle papillary muscles assessed as lengthening of 50% repolarized cardiac action potential duration time at 10^-7 M by microelectrode technique relative to untreated control (reference value: 180 to 192 APD50 ms) in presence of 3.1 x 10^-6 M inward rectifier current blocker BaCl2; type: functional, Cavia porcellus
[14] = Ionotropic effect in guinea pig ventricle papillary muscles assessed as lengthening of 90% repolarized cardiac action potential duration time at 10^-4 M by microelectrode technique relative to untreated control (reference value: 209 to 222 APD50 ms) in presence of 2 x 10^-5 M KATP channel blocker glibenclamide; type: functional, Cavia porcellus
[15] = Ionotropic effect in guinea pig right ventricle papillary muscles assessed as contraction force at 10^-6 M by force transduction assay relative to untreated control (reference value: 100%); type: functional, Cavia porcellus, Papillary muscle
[16] = Ionotropic effect in guinea pig ventricle papillary muscles assessed as lengthening of 10% repolarized cardiac action potential duration time at 10^-6 M by microelectrode technique relative to untreated control (reference value: 52 to 54 APD10 ms) in presence of 3.1 x 10^-6 M inward rectifier current blocker BaCl2; type: functional, Cavia porcellus
[17] = Ionotropic effect in guinea pig ventricle papillary muscles assessed as lengthening of 90% repolarized cardiac action potential duration time at 10^-7 M by microelectrode technique relative to untreated control (reference value: 209 to 222 APD50 ms) in presence of 2 x 10^-5 M KATP channel blocker glibenclamide; type: functional, Cavia porcellus
[18] = Ionotropic effect in guinea pig ventricle papillary muscles assessed as lengthening of 50% repolarized cardiac action potential duration time at 10^-4 M by microelectrode technique relative to untreated control (reference value: 180 to 192 APD50 ms) in presence of 1 x 10^-6 M IKr channel blocker Sotalol; type: functional, Cavia porcellus
[19] = Ionotropic effect in guinea pig ventricle papillary muscles assessed as lengthening of 90% repolarized cardiac action potential duration time at 10^-4 M by microelectrode technique relative to untreated control (reference value: 132 to 176 APD50 ms); type: functional, Cavia porcellus, Papillary muscle
[20] = Ionotropic effect in guinea pig ventricle papillary muscles assessed as lengthening of 10% repolarized cardiac action potential duration time at 10^-6 M by microelectrode technique relative to untreated control (reference value: 52 to 54 APD10 ms) in presence of 1 x 10^-6 M IKr channel blocker Sotalol; type: functional, Cavia porcellus
[21] = Ionotropic effect in guinea pig right ventricle papillary muscles assessed as contraction force at 10^-7 M by force transduction assay relative to untreated control (reference value: 100%) in presence of 3.1 x 10^-6 M inward rectifier current blocker BaCl2; type: functional, Cavia porcellus, Heart right ventricle
[22] = Ionotropic effect in guinea pig ventricle papillary muscles assessed as lengthening of 25% repolarized cardiac action potential duration time at 10^-7 M by microelectrode technique relative to untreated control (reference value: 120 to 131 APD25 ms) in presence of 1 x 10^-6 M IKr channel blocker Sotalol; type: functional, Cavia porcellus
[23] = Ionotropic effect in guinea pig right ventricle papillary muscles assessed as contraction force at 10^-5 M by force transduction assay relative to untreated control (reference value: 100%); type: functional, Cavia porcellus, Papillary muscle
[24] = Ionotropic effect in guinea pig ventricle papillary muscles assessed as lengthening of 25% repolarized cardiac action potential duration time at 10^-6 M by microelectrode technique relative to untreated control (reference value: 120 to 131 APD25 ms) in presence of 1 x 10^-6 M IKr channel blocker Sotalol; type: functional, Cavia porcellus
[25] = Ionotropic effect in guinea pig right ventricle papillary muscles assessed as contraction force at 10^-5 M by force transduction assay relative to untreated control (reference value: 100%) in presence of 3.1 x 10^-6 M inward rectifier current blocker BaCl2; type: functional, Cavia porcellus, Heart right ventricle

SMILES: CCCOCCOC(=O)C1=C(C)NC=C([N+](=O)[O-])C1c1ccccc1OC(F)F (stereo not given)
- Time [1]: 222 ms
- Time [2]: 267.9 ms
- Time [3]: 238 ms
- Time [4]: 55.7 ms
- Time [5]: 41.4 ms
- Activity [6]: 93.6%
- Activity [7]: 108%
- Time [8]: 46 ms
- Time [9]: 235 ms
- Time [10]: 40 ms
- Activity [11]: 100.2%
- Time [12]: 133.6 ms
- Time [13]: 210 ms
- Time [14]: 276 ms
- Activity [15]: 120%
- Time [16]: 60.9 ms
- Time [17]: 234.5 ms
- Time [18]: 218.9 ms
- Time [19]: 256 ms
- Time [20]: 49 ms
- Activity [21]: 111.4%
- Time [22]: 130 ms
- Activity [23]: 134%
- Time [24]: 132.9 ms
- Activity [25]: 193%
